SMILES strings stand for the structures. Counter-ions that a name gives are not always drawn.

The source of these data is patent US7309702B2, “Arylpiperazines having activity at the serotonin 1A receptor” (Avera Pharmaceuticals, Inc., priority 1997, dated 2007).

For `COc1ccccc1N1CCN(CCC(C(=O)C2CCCCCC2)c2ccccc2)CC1` (centres unmarked) (as salt: hydrochloride) [Example 6, 1-(2-methoxyphenyl)-4-[3-(cycloheptanecarbonyl)-3-(phenyl)propyl]piperazine dihydrochloride], the melting point lay in the range of 193 to 194 °C. The compound `COc1ccccc1N1CCN(CCC(C(=O)C2CCCC2)c2ccccc2)CC1` (centres unmarked) (as salt: hydrochloride) [Example 7, 1-(2-methoxyphenyl)-4-[3-(cyclopentanecarbonyl)-3-(phenyl)propyl]piperazine dihydrochloride] yielded a melting point of 210 to 212 °C. As for `COc1ccccc1N1CCN(CCC(C(=O)c2ccccc2)c2ccccc2)CC1.O=C(O)C(=O)O` (centres unmarked) [Example 1, 1-(2-methoxyphenyl)-4-[3-(benzoyl)-3-(phenyl)propyl]piperazine Oxalate], the melting point fell in the range of 161 to 163 °C. With `COc1ccccc1N1CCN(CCC(C(=O)C2CCCCC2)c2ccccc2)CC1.O=C(O)C(=O)O` (centres unmarked) [Example 2, 1-(2-methoxyphenyl)-4-[3-(cyclohexanecarbonyl)-3-(phenyl)propyl]piperazine oxalate], the melting point is 149 to 151 °C.

Regarding `O=C(C1CCCCC1)C(CCN1CCN(c2ccccn2)CC1)c1ccccc1.O=C(O)C(=O)O` (centres unmarked) [Example 3, 1-(2-pyridyl)-4-[3-(cyclohexanecarbonyl)-3-(phenyl)propyl]piperazine oxalate], the melting point lay within 185 to 187 °C. The value for `COc1ccccc1N1CCN(CCC(C)(C(=O)c2ccccc2)c2ccccc2)CC1.O=C(O)C(=O)O` (centres unmarked) [Example 5, 1-(2-methoxyphenyl)-4-[3-(benzoyl)-3-(phenyl)butyl]piperazine oxalate] was 192 to 193 °C; that for `COc1ccccc1N1CCN(CCC(c2ccccc2)C(O)C2CCCCC2)CC1.O=C(O)C(=O)O` (centres unmarked) [Example 8, 1-(2-methoxyphenyl)-4-[4-(cyclohexyl)-4-(hydroxy)-3-(phenyl)butyl]piperazine oxalate] was 100 to 102 °C; that for `COc1ccccc1N1CCN(CCC(C)(C(=O)C2CCCCC2)c2ccccc2)CC1` (centres unmarked) [Example 9, 1-(2-methoxyphenyl)-4-[3-(cyclohexanecarbonyl)-3-(phenyl)butyl]piperazine] was 192.81 °C.

The melting point is the temperature of the solid-liquid transition.
